Legend:
[1] = tested on: A549 human lung cancer cells; assay: ROS assay, dihydroethidium (DHE) fluorescence by flow cytometry, with or without antimycin A; format: cell-based; conditions: for ROS levels (DHE fluorescence) with antimycin A (AM): AM as ROS inducer, p<0.05
Procedure: A549 human lung cancer cells were seeded in 6-well plates at 200,000 cells/well for 40 hours, then the medium was removed, and treatments were added. Ubiquinol (coQ10) was dispersed in RPMI medium at three different concentrations (100, 50, and 10 μM) and added to wells (n=3 each), then the volume of each well was completed to 4 ml with medium. Ubiquinol-γ-cyclodextrin (1:10 molar ratio) complex dispersed in RPMI at three different concentrations (equivalent to 100, 50, and 10 μM of ubiquinol) and added to wells (n=3/each) and the volume of the each well was completed to 4 ml with medium._γ-cyclodextrin was added in amounts equivalent to those associated with 100, 50, and 10 μM of the complex to each well (n=3/each) and the volume of the each well was completed to 4 ml with medium._Six wells were left untreated._After 24 h, media were removed, and wells were washed with 5 mM sodium pyruvate in PBS, trypsinized, then collected in 15 ml tubes by centrifugation. Cells were washed with 5 mM sodium pyruvate in PBS, then re-suspended in 1 ml of the same solution._The reagents were added as described in FIG. 14, then incubated at 40 min._Cells were re-suspended and transferred to round-bottom tubes, and analyzed by flow Cytometry.

[2] = Dispersibility and solubility in water, solvents and media; format: physicochemical; conditions: for solubility in cell culture: cell culture environments (primary cultures)
Procedure: 50 mg of kneaded complex added to 10 ml H2O and shaken for 2 hours.
In FIG. 10, the image on the right is 5 mg of CoQ10 added to 10 ml H2O and shaken for 2 hours.
Paired corneas were supplemented with 10 μM ubiquinol (Fuller et al., 2006) (USP analytical standard, Sigma Aldrich, St. Louis, Mo.), 100 μM palmitate-BSA (Pfleger et al., 2015) (Agilent, Santa Clara, Calif.), or diluent only for 5 days, such that one cornea from a donor received treatment while its mate from the same donor was a control. Concentrations were chosen based on previously published studies (Fuller et al., 2006; Pfleger et al., 2015). Diluents were chosen based on supplement solubility. Although several diluents were tried for ubiquinol (water, Optisol-GS, DMSO and ethanol), ethanol was chosen based on its ability to solubilize ubiquinol most successfully. No complexing agents were used to solubilize ubiquinol. Following the 5 days of storage with supplementation, tissues were processed for metabolic and cell viability assays as described below.
Due to its long hydrocarbon side chain, ubiquinol is difficult to solubilize in biocompatible solvents. In this series, several attempts were made to bring this lipid-soluble molecule into aqueous solution. First, ubiquinol was attempted to be dissolved using polar […] known to be biocompatible with CECs (Optisol-GS, water) based on the goal of achieving a high bioavailability for clinical applications. […] Next two organic polar […] solvents, DMSO and absolute ethanol, were tested. DMSO commonly is used as a solvent in cell biology and biochemistry, and both DMSO and ethanol can solubilize hydrocarbons. […] In addition to its lipophilicity, native ubiquinol is also unstable. Although not encountered in this series ubiquinol oxidizes in the presence of oxygen and light and turns yellow, indicating the formation of its oxidized form, ubiquinone. It is therefore necessary to improve the solubility and handleability of ubiquinol for future validations of its effects on oxidative stress related pathways.

**Q.** With ubiquinol as the substance, how does the “ROS inhibition with an increase in concentration” value ([1]; 10, 50, 100 μM ubiquinol or equivalent) read?
**A.** does not result in any significant change in ROS inhibition

**Q.** What about the “ROS levels (DHE fluorescence) with antimycin A (AM)” value ([1]; 24 h treatment, listed as Free ubiquinol) of the same substance?
**A.** failed to decrease ROS levels after AM treatment

**Q.** And the “ROS levels (DHE fluorescence) with antimycin A (AM)” value ([1]; 24 h treatment, listed as free ubiquinol)?
**A.** unable to inhibit ROS

**Q.** And the “ROS levels (DHE fluorescence) without ROS induction by AM” value ([1]; 24 h treatment, no AM)?
**A.** decrease the ROS levels in the cells below the normal levels

**Q.** What about the “solubility in Optisol-GS storage media after dissolving in ethanol” value [2] of the same substance?
**A.** appeared to remain in solution

**Q.** What about the dispersibility in water ([2]; 50 mg kneaded complex or 5 mg CoQ10 in 10 ml H2O, shaken for 2 hours) of the same substance?
**A.** prefers to accumulate at the air-water interface or to adhere to the glass container

**Q.** What about the “solubility in cell culture” value [2] of the same substance?
**A.** precipitated out of solution

**Q.** And the “solubility in cell culture” value ([2]; listed as coQ10)?
**A.** not soluble

**Q.** And the “solubility in DMSO” value ([2]; despite heating the solution)?
**A.** precipitated in DMSO

**Q.** And the “solubility in Optisol-GS, water” value ([2]; even after heating)?
**A.** precipitated out of these solutions

**Q.** What about the “solubility in absolute ethanol” value ([2]; heated to 37° C., precipitates if not poured immediately into storage media) of the same substance?
**A.** dissolved

— patent US20220249399A1, “COMPOSITION COMPRISING AN ANTI-OXIDANT TO PRESERVE CORNEAL TISSUE” (University of lowa Research Foundation, priority 2019, published 2022)
